For ten molecules, IC50 results are on record in ChEMBL document CHEMBL1143204, “Syntheses and in vitro evaluation of arylsulfone-based MMP inhibitors with heterocycle-derived zinc-binding groups (ZBGs)” (Bioorg Med Chem Lett, 2008).

A value given as a limit tells only on which side of the number the result lay.

In test [1] the target is Matrix metalloproteinase-9 (Homo sapiens, UniProt P14780). Kind of test: Inhibition of MMP9.
Test [2] deals with Collagenase 3 (Homo sapiens, UniProt P45452). Kind of test: Inhibition of MMP13.
Test [3] has as its target T1, Interstitial collagenase (Homo sapiens, UniProt P03956).
T1 sequence (P03956 whole entry): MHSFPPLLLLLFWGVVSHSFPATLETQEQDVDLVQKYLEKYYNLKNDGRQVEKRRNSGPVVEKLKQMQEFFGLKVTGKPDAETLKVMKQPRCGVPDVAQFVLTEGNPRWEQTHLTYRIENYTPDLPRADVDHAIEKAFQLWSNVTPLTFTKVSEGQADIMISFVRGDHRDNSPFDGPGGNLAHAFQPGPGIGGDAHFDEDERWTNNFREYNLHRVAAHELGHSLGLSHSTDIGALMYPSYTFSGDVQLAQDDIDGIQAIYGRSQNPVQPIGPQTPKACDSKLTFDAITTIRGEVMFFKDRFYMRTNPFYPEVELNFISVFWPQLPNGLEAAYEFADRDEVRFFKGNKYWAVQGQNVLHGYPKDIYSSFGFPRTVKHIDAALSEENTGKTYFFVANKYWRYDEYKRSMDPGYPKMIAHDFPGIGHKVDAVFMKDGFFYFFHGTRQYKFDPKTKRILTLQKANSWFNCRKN
Kind of test: Inhibition of MMP1.

The target in test [4] is Stromelysin-1 (Homo sapiens, UniProt P08254). Description: Inhibition of MMP3.
Chain of Stromelysin-1 (P08254 whole entry): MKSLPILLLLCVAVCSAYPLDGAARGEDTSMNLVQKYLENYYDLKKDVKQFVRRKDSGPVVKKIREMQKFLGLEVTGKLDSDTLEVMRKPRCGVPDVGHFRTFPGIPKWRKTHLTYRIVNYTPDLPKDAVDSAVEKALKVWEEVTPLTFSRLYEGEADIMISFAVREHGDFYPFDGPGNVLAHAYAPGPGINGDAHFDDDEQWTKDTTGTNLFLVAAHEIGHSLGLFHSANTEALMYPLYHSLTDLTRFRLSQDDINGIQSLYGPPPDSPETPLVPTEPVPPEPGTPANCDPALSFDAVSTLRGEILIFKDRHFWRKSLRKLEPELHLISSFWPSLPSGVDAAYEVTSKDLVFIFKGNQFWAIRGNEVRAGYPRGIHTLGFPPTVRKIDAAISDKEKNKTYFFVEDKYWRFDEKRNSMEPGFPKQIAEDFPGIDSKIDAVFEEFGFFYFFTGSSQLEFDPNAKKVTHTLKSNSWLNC
Test [5] has as its target 72 kDa type IV collagenase (Homo sapiens, UniProt P08253). Description: Inhibition of MMP2.

Chain of 72 kDa type IV collagenase (P08253 whole entry): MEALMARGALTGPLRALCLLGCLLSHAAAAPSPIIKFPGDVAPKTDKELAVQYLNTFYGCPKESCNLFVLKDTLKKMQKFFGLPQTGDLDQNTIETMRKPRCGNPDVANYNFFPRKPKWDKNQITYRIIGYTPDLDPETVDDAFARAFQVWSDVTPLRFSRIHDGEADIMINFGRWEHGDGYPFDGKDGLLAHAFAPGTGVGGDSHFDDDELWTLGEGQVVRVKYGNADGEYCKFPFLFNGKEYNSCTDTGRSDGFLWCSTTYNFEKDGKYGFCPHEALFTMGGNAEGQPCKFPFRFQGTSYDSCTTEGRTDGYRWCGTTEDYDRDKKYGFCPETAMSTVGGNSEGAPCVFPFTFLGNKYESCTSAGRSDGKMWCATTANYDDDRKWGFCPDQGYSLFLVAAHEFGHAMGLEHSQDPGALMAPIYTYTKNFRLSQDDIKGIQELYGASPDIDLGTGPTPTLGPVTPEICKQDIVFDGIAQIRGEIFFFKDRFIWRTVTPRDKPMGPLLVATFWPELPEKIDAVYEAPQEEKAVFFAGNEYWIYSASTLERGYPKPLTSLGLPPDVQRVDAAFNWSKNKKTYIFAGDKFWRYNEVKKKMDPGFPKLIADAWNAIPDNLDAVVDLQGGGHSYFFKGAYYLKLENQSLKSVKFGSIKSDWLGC
Chain of Matrix metalloproteinase-9 (P14780 whole entry): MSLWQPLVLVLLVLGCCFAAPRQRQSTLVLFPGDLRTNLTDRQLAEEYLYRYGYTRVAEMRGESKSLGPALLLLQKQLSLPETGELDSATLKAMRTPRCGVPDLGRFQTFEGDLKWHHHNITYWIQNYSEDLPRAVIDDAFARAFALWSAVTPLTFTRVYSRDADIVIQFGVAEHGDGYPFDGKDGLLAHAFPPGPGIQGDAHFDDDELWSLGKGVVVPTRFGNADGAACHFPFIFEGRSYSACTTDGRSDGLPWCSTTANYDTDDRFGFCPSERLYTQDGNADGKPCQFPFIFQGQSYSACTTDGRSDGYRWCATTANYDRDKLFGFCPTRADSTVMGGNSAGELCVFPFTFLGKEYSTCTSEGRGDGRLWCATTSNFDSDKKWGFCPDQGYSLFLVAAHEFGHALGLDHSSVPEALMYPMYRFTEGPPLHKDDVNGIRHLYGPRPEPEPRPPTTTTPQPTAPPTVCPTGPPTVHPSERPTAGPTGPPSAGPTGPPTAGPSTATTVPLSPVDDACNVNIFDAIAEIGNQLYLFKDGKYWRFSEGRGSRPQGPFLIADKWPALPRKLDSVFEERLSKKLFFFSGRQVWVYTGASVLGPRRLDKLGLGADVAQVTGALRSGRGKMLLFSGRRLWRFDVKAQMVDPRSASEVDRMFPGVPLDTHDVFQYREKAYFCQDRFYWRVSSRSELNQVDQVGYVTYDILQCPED

In test [1], `Cc1ccc(S(=O)(=O)Cn2cccc(O)c2=O)cc1` gave a half-inhibitory concentration (IC50) of 809 nM.

Regarding `O=C1[C@H](CS(=O)(=O)c2ccc(Oc3ccccc3)cc2)NCCCN1O`, the IC50 in test [2] was 11 nM; in test [3] it was over 1000 nM; in test [4] it was 964 nM; in test [1], 21.1 nM; in test [5], 36.8 nM.

Turning to `COc1ccc(Oc2ccc(S(=O)(=O)C3CCCCCN(O)C3=O)cc2)cc1` (stereo unspecified), the IC50 in test [1] and in test [5] was over 1000 nM throughout.

With `COc1ccc(Oc2ccc(S(=O)(=O)Cc3cccn(O)c3=O)cc2)cc1`, the IC50 in test [2] was 13.4 nM; in test [3] it was over 1000 nM; in test [4] it was 308 nM.

For the molecule `COc1ccc(Oc2ccc(S(=O)(=O)Cn3cccc(O)c3=O)s2)cc1`, the half-maximal inhibitory concentration (IC50) was found to be 13.9 nM in test [1] and 72 nM in test [5].

`COc1ccc(-c2ccc(S(=O)(=O)C3CCCCN(O)C3=O)cc2)cc1` (stereo unspecified): the concentration for half-maximal inhibition (IC50) in test [1] and in test [5] was over 1000 nM in each case.

For `O=c1c(O)cccn1CS(=O)(=O)c1ccc(Oc2ccc(Cl)cc2)cc1`, the IC50 worked out at 16.4 nM in test [1] and 10.6 nM in test [5].

For `O=C1C(S(=O)(=O)c2ccc(Oc3ccc(OC(F)(F)F)cc3)cc2)CCCCN1O` (stereo unspecified), the half-maximal inhibitory concentration (IC50) in test [1] is 21.5 nM; in test [5] it was 59.4 nM.

`O=c1c(O)cccn1CS(=O)(=O)c1ccc(Oc2ccc(OC(F)(F)F)cc2)cc1`: the IC50 in test [2] was 7.3 nM; in test [3] it was over 1000 nM; in test [4] it was 203 nM; in test [1], 4 nM; in test [5], 12.6 nM.

As for `COc1ccc(-c2ccc(S(=O)(=O)Cn3cccc(O)c3=O)cc2)cc1`, the IC50 in test [1] and in test [5] was over 1000 nM throughout.
